From patent US11072634B2, “Inhibitors of transglutaminases” (Zedira GmbH, priority 2016, dated 2021) come the findings set out here.

The target of assay [1] is T1, TG2 (Homo sapiens, UniProt P21980).
T1 sequence (P21980 1-687): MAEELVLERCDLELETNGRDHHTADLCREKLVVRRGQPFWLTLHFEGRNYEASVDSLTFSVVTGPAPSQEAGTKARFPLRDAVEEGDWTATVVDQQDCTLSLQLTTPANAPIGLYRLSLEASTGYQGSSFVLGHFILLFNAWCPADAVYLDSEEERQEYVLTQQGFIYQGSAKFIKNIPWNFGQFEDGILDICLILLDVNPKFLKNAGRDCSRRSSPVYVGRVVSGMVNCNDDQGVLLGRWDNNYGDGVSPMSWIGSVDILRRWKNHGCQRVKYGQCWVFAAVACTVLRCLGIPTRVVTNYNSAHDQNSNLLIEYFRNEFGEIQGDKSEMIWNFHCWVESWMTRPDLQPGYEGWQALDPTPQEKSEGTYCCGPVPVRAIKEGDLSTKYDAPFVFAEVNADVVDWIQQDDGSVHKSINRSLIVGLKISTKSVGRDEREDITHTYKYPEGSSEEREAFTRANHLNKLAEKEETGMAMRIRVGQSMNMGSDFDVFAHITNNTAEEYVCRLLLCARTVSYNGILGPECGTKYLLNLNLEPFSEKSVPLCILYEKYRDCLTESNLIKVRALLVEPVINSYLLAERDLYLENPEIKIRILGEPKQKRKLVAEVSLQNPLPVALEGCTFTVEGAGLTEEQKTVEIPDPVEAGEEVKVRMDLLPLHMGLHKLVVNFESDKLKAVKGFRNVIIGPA
Briefly: FXIII assay format using TG2 instead of FXIII (selectivity of FXIIIa blockers). Format: biochemical. How it is done:
(§1) 50 μg lyophilized His-tagged recombinant human factor XIII A-subunit (His6-rhFXIII, Zedira product 1027) is reconstituted in H2O (volume depends on original volume before lyophilization) resulting in a buffer containing 20 mM Tris-HCl, 150 mM NaCl, 1 mM EDTA, 1 mM DTT, 189 mg/ml maltodextrin, pH=7.5. The rhFXIII stock solution is diluted in buffer (50 mM Tris-HCl, 7.5 mM CaCl2, 150 mM NaCl, pH=7.4) to give a working solution of 59 U/ml (based on the amine-incorporation activity measured using transglutaminase activity assay #1036 (Zedira GmbH), described below).
(§2) A 10 mM inhibitor stock solution is prepared in DMSO, and from this a serial 1:2-fold dilution series is prepared also in DMSO. Each of the initial dilutions is subsequently diluted 1:50-fold with buffer (50 mM Tris-HCl, 7.5 mM CaCl2, 150 mM NaCl, pH=7.4) to yield the final working dilutions containing 2% (v/v) DMSO.
(§3) 15 μl of inhibitor working dilution are added per well of a 96 well microtiter plate. As control, 15 μl of a 2% (v/v) DMSO solution prepared using the buffer mentioned above are added per well.
(§4) 480 μl of His6-rhFXIII working solution and 120 μl human alpha thrombin (0.5 NIH units/μl) are added to 10.8 ml assay buffer (50 mM Tris-HCl, 7.5 mM CaCl2, 150 mM NaCl, 5 mM DTT, 13.4 mM glycine methylester, 50 μM Abz-NE(CAD-DNP)EQVSPLILLK-OH, (Zedira product A101; patent No.: EP 1781807B1), pH=7.4). From this master-mix solution, 285 μl are added per well containing the inhibitor. Increase in fluorescence is measured using […] and λem=418 nm at 37° C. for 35 min. A slope of the increase in fluorescence between 20 and 30 min is calculated for determination of the IC50 value (inhibitor concentration at which 50% of the initial FXIII activity is blocked).
This assay was also used to determine selectivity of inhibitors preferentially blocking FXIIIa by using TG2 instead of FXIII.
(§5) Analysis of enzymatic activity is performed by calculation of the slope of an increase in fluorescence intensity. IC50 values are calculated by plotting the enzymatic activity (as percentage from control containing 2% DMSO instead of inhibitor) against the inhibitor concentration. IC50 is defined as the inhibitor concentration blocking 50%) of initial enzyme activity.

Assay [2] deals with T2, recombinant human factor XIII A-subunit (rhFXIII-A, plasma transglutaminase) (Homo sapiens, UniProt P00488).
T2 construct: His6; purchased Zedira 1027 (so in the source); T027)
T2 sequence (P00488 39-732 limits assumed): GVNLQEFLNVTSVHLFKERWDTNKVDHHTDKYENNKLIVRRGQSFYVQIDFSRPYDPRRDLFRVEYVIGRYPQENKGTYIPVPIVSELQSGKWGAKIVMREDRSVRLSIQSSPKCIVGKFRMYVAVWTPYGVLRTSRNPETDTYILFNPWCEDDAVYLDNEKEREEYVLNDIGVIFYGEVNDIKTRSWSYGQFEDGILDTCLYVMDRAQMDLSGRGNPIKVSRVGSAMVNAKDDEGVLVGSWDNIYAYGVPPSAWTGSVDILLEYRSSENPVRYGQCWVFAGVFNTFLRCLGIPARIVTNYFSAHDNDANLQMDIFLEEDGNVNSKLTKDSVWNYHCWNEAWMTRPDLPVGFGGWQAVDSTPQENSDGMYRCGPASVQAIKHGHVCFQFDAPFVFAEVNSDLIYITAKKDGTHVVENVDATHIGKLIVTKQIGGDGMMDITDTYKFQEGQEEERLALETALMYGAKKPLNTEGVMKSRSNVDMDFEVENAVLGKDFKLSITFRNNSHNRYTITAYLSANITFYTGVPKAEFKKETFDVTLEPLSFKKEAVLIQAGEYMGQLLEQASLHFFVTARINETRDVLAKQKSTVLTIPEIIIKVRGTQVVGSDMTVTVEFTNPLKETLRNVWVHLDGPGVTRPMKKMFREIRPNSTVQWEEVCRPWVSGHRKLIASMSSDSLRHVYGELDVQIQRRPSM
Briefly: Inhibition of rec. human coagulation factor XIII (fluorescence, Abz-NE(CAD-DNP)EQVSPLILLK-OH). Format: biochemical. How it is done: Method for Inhibition Studies of Rec. Human Coagulation Factor XIII (Plasma Transglutaminase, rhFXIII-A)
as §1, §2, §3, §4, §5

Assay [3] deals with fresh citrated whole blood. Briefly: Thromboelastometry (ROTEM delta) in whole blood with t-PA. As to conditions: human whole blood. How it is done: Thromboelastometry is a visco-elastic method for the assessment of blood coagulation. In whole blood parameters like clotting time (CT), clot formation time (CFT), maximum clot firmness (MCF) and lysis index at 60 min (LI60) were obtained using the ROTEM® delta device according to the manufacturer.
Briefly, 20 μL star-TEM® (0.2 mol/l CaCl2), 20 μL r ex-TEM® (recombinant tissue factor, phospholipids, heparin inhibitor), 10 μL inhibitor stock solution (1.8-0.23 mM), combined with 10 μL t-PA stock solution (0.72 μg/ml) to yield concentrations of 0.9-0.11 mM in 18% DMSO/PBS with 0.36 μg/ml t-PA and 300 μL fresh citrated whole blood (human, from healthy consenting donors) were mixed in a disposable cuvette. As control the inhibitor stock solution was replaced by 36% DMSO/0.36 μg/ml t-PA in PBS.

Where [4] appears, read: Table 3, selectivity with respect to TG2, read-out: IC50 TG2.
The mark [5] stands for this setting: Table 3, FXIII inhibitors, read-out: IC50 FXIII.

The structures appear in SMILES notation. Where two headings read alike, the source gives them in different places. *1 amine or outer side, *2 acyl side, *3 side chain or, on linkers, in order; H or OH if unused. Where a SMILES comes first, the peptide text is derived from it. [ ]: non-standard residue; d: D form. The star is where a group is joined. X7 = O=C(CC[C@H](N[*:1])C(=O)[*:2])C(=O)NCc1ccccc1; X2 = CC(C)(C)NC(=O)C(=O)CC[C@H](N[*:1])C(=O)[*:2]; X1 = CCCCCNC(=O)C(=O)CC[C@H](N[*:1])C(=O)[*:2]; Isonicotinoyl(3-COOH) = O=C(O)c1cnccc1C(=O)*; X5 = NC(=O)C(=O)CC[C@H](N[*:1])C(=O)[*:2]; Pro(4-oxo) = O=C1CN[C@H](C(=O)O)C1; Chg = N[C@H](C(=O)O)C1CCCCC1; Tle = CC(C)(C)[C@H](N)C(=O)O; Nle = CCCC[C@H](N)C(=O)O

As to `CC(C)(C)NC(=O)C(=O)CC[C@H](NC(=O)c1ccncc1C(=O)O)C(=O)N[C@H](C(=O)N1CC(=O)C[C@H]1C(=O)N[C@H](C(=O)N[C@H](C(N)=O)C1CCCCC1)C1CCCCC1)C(C)(C)C` [Compound E30, 4-((S)-1-((S)-1-((S)-2-((S)-2-((S)-2-amino-1-cyclohexyl-2-oxoethylamino)-1-cyclohexyl-2-oxoethylcarbamoyl)-4-oxopyrrolidin-1-yl)-3,3-dimethyl-1-oxobutan-2-ylamino)-6-(tert-butylamino)-1,5,6-trioxohexan-2-ylcarbamoyl)nicotinic acid] ({Isonicotinoyl(3-COOH)}-[X2][Tle][Pro(4-oxo)][Chg][Chg]-NH2), the IC50 in assay [1] (setting [4]) is greater than 20000 nM; in assay [2] (setting [5]) it was 2900 nM.
For the compound `CC(C)(C)[C@H](NC(=O)[C@H](CCC(=O)C(N)=O)NC(=O)c1cnc(O)c([N+](=O)[O-])c1)C(=O)N1CCCCC1C(=O)N[C@H](C(=O)N[C@H](C(N)=O)C1CCCCC1)C1CCCCC1` (stereo in doubt) [Compound E09, (S)—N1-((S)-1-((R)-2-((S)-2-((S)-2-amino-1-cyclohexyl-2-oxoethylamino)-1-cyclohexyl-2-oxoethylcarbamoyl)piperidin-1-yl)-3,3-dimethyl-1-oxobutan-2-yl)-2-(6-hydroxy-5-nitronicotinamido)-5-oxohexanediamide], the IC50 in assay [1] worked out at 100 nM; in assay [2], 150 nM.
As to `CC(C)(C)[C@H](NC(=O)[C@H](CCC(=O)C(N)=O)NC(=O)c1ccncc1C(=O)O)C(=O)N1CC(=O)C[C@H]1C(=O)N[C@H](C(=O)N[C@H](C(N)=O)C1CCCCC1)C1CCCCC1` [Compound E31, 4-((S)-6-amino-1-((S)-1-((S)-2-((S)-2-((S)-2-amino-1-cyclohexyl-2-oxoethylamino)-1-cyclohexyl-2-oxoethylcarbamoyl)-4-oxopyrrolidin-1-yl)-3,3-dimethyl-1-oxobutan-2-ylamino)-1,5,6-trioxohexan-2-ylcarbamoyl)nicotinic acid] ({Isonicotinoyl(3-COOH)}-[X5][Tle][Pro(4-oxo)][Chg][Chg]-NH2), the IC50 in assay [1] (setting [4]) was greater than 20000 nM; in assay [2] (setting [5]), 5000 nM.
As to `CCCCCNC(=O)C(=O)CC[C@H](NC(=O)c1ccncc1C(=O)O)C(=O)N[C@H](C(=O)N1CC(=O)C[C@H]1C(=O)N[C@H](C(=O)N[C@H](C(N)=O)C1CCCCC1)C1CCCCC1)C(C)(C)C` [Compound E27, 4-((S)-1-((S)-1-((S)-2-((S)-2-((S)-2-amino-1-cyclohexyl-2-oxoethylamino)-1-cyclohexyl-2-oxoethylcarbamoyl)-4-oxopyrrolidin-1-yl)-3,3-dimethyl-1-oxobutan-2-ylamino)-6-1,5,6-trioxo-6-(pentylamino)hexan-2-ylcarbamoyl)nicotinic acid] ({Isonicotinoyl(3-COOH)}-[X1][Tle][Pro(4-oxo)][Chg][Chg]-NH2), the IC50 in assay [1] (setting [4]) was 7800 nM; in assay [2] (setting [5]), 60 nM. Besides, the “reduction of maximum clot firmness (MCF) compared to control (K)” value in assay [3] (6.25-50 μM, with t-PA) is on record as “dose dependent influence”. For the same compound, the “clot lysis at 60 minutes (LI60)” value in assay [3] (in the presence of 0.02% t-PA) is listed as “dose dependent influence”.
In the case of `CCCC[C@H](NC(=O)[C@H](CCC(=O)C(N)=O)NC(=O)[C@H](CC(=O)O)NC(C)=O)C(=O)N[C@@H](CCCC)C(=O)N[C@@H](CC(C)C)C(=O)N1CCC[C@H]1C(=O)N[C@@H](Cc1c[nH]c2ccccc12)C(=O)N1CCC[C@H]1C(=O)O` [Compound E08, (S)-1-((S)-2-((S)-1-((4R,7S,10S,13S,16S)-7-(4-amino-3,4-dioxobutyl)-10, -dibutyl-4-(carboxymethyl)-18-methyl-2,5,8,11,14-pentaoxo-3,6,9,12,15-pentaazanonadecanecarbonyl)pyrrolidine-2-carboxamido)-3-(1H-indol-3-yl)propanoyl)pyrrolidine-2-carboxylic acid] (Ac-D[X5][Nle][Nle]LPWP-OH), the figures for the IC50 in assay [1] (setting [4]) and in assay [2] (setting [5]) were 100 nM and 150 nM, respectively.
The matching figures for `CC(C)(C)[C@H](NC(=O)[C@H](CCC(=O)C(=O)NCc1ccccc1)NC(=O)c1ccncc1C(=O)O)C(=O)N1CC(=O)C[C@H]1C(=O)N[C@H](C(=O)N[C@H](C(N)=O)C1CCCCC1)C1CCCCC1` [Compound E29, 4-((S)-1-((S)-1-((S)-2-((S)-2-((S)-2-amino-1-cyclohexyl-2-oxoethylamino)-1-cyclohexyl-2-oxoethylcarbamoyl)-4-oxopyrrolidin-1-yl)-3,3-dimethyl-1-oxobutan-2-ylamino)-6-(benzylamino)-1,5,6-trioxohexan-2-ylcarbamoyl)nicotinic acid] ({Isonicotinoyl(3-COOH)}-[X7][Tle][Pro(4-oxo)][Chg][Chg]-NH2): greater than 20000 nM and 850 nM.
Turning to `CCCC(NC(=O)C1C2C(CN1C(=O)C(CC1CC1)NC(=O)C(CCC(=O)C(N)=O)NC(=O)c1cc(C(=O)O)cc([N+](=O)[O-])c1)C2(C)C)C(=O)N1CCCC1(C)C(=O)NC(C)COc1c(C)cccc1C` [Compound E10, 3-((2S)-6-amino-1-((2S)-3-cyclopropyl-1-((1R,2S)-2-((2S)-1-((2S)-2-(1-(2,6-dimethylphenoxy)propan-2-ylcarbamoyl)-2-methylpyrrolidin-1-yl)-1-oxopentan-2-ylcarbamoyl)-6,6-dimethyl-3-azabicyclo[3.1.0]hexan-3-yl)-1-oxopropan-2-ylamino)-1,5,6-trioxonexan-2-ylcarbamoyl)-5-nitrobenzoic acid], the values for the IC50 in assay [1] and in assay [2] were 100 nM and 150 nM, respectively.

One may read the IC50 as the midpoint of a concentration-inhibition curve.
